Holding throughout (type): biochemical
For experiment [1], the target named is T1, BTK-WT (Homo sapiens, UniProt Q06187).
T1 construct: purified from insect cells as a full-length construct containing an N-terminal 6X-His tag; His6 (N); made in house; host or cells: insect cells (baculovirus Sf21 in Method B)
In words: Btk in vitro inhibitory activity (one of Method A TR-FRET, Method B electrophoretic mobility shift, Method C radiometric filter binding). Particulars: read-out: BTK-WT (IC50).

The target of experiment [2] is T2, JAK3 (Homo sapiens, UniProt P52333).
T2 sequence (P52333 1-1124): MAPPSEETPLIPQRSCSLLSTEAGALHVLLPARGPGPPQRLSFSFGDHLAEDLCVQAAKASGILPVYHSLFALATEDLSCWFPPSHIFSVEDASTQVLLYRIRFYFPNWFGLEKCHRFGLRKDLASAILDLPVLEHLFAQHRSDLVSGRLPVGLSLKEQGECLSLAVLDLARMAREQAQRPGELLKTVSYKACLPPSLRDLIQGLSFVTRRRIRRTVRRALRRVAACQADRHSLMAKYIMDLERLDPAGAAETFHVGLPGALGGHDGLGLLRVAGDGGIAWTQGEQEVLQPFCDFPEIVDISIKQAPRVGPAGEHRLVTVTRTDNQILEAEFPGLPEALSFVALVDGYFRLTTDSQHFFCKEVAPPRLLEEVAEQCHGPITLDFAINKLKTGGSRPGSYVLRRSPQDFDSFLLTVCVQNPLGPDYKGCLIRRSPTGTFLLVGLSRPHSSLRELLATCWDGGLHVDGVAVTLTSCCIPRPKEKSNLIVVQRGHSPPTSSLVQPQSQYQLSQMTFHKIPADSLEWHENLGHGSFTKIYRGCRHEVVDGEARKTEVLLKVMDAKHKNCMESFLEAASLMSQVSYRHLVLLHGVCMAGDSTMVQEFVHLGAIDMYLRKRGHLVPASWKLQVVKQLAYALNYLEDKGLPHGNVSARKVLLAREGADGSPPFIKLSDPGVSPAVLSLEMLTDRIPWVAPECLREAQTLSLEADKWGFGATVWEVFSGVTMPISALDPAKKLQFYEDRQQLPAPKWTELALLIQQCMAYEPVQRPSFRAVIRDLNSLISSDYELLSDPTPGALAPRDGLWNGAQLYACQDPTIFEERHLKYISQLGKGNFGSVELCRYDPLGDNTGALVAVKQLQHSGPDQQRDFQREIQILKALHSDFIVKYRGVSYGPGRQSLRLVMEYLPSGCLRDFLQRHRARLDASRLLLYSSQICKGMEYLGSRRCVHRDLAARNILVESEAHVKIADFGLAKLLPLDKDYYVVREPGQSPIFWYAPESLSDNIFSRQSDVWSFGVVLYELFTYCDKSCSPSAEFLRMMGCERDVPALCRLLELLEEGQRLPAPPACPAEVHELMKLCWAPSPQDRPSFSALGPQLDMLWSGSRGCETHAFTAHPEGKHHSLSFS
In words: Inhibition of a panel of kinases, in vitro HotSpot kinase assay: JAK3. The conditions noted are these: 1 μM ATP, read-out: JAK3 (IC50).

In experiment [3] the target is LCK (Homo sapiens, UniProt P06239). Description: Inhibition of a panel of kinases, in vitro HotSpot kinase assay: LCK. Particulars: 1 μM ATP, read-out: LCK (IC50).

Here are results for 10 compounds from patent US20210070748A1, “INHIBITORS OF BRUTONS TYROSINE KINASE” (Pharmacyclics LLC, priority 2015, published 2021).

Like-named read-outs stand apart in the source and are kept apart here.

T1 sequence (Q06187 whole entry): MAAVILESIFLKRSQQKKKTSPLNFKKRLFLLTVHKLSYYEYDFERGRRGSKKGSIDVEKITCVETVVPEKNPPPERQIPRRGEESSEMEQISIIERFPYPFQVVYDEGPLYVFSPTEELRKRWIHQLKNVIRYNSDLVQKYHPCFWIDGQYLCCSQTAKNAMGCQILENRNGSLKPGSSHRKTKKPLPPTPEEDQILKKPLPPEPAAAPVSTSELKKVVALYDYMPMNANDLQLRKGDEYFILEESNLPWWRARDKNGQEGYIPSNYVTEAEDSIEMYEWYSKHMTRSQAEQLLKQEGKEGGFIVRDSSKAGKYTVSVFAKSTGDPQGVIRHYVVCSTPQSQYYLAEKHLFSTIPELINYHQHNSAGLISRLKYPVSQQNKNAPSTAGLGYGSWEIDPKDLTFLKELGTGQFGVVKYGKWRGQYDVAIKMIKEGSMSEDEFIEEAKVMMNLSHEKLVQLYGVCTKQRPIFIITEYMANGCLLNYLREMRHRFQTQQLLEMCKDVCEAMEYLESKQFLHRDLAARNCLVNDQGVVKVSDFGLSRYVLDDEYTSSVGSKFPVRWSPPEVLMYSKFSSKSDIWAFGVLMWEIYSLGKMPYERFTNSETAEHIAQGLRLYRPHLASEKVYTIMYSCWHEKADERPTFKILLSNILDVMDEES
Sequence of LCK (P06239 whole entry): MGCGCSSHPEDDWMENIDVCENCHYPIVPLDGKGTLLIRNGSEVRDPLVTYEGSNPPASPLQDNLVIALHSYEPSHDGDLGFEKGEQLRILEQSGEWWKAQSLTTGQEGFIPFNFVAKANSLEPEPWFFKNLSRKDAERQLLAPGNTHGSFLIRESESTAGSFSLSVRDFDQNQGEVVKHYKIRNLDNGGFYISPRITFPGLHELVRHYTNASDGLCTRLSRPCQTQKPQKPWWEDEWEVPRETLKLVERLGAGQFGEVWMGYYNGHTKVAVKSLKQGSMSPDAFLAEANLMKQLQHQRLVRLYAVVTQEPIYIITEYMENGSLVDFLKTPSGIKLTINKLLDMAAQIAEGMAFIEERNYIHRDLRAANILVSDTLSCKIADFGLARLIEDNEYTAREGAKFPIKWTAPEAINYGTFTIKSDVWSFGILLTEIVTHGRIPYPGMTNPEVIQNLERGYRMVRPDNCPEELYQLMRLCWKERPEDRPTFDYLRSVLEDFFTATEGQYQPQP

Turning to `Cc1cc(Nc2nc(N3CCC[C@@H](NC(=O)N4Cc5ccccc5C4)C3)cnc2C(N)=O)sn1` [Example A-17, N-[(3R)-1-{5-carbamoyl-6-[(3-methyl-1,2-thiazol-5-yl)amino]pyrazin-2-yl}piperidin-3-yl]-2,3-dihydro-1H-isoindole-2-carboxamide], the IC50 was no more than 100 nM in experiment [1] (Table 10, Formula A-I); 100 to 1000 nM in experiment [2] (Table 10, Formula A-I); 100 to 1000 nM in experiment [3] (Table 10, Formula A-I).

Consider `CN1CCN(C(=O)c2ccc(Nc3nc(N[C@H]4CC[C@H](NC(=O)c5ccc(C6CC6)cc5F)CC4)cnc3C(N)=O)cc2)CC1` [Example B-14, 5-((1r,4r)-4-(4-cyclo-propyl-2-fluoro-benzamido)cyclohexyl-amino)-3-(4-(4-methylpiperazine-1-carbonyl)phenylamino) pyrazine-2-carboxamide], for which the IC50 was no more than 100 nM in experiment [1] (Table 11, Formula B-I); 100 to 1000 nM in experiment [2] (Table 11, Formula B-I); 100 to 1000 nM in experiment [3] (Table 11, Formula B-I).

`Cc1cc(Nc2nc(NC3CCC(NC(=O)c4ccc(N(C)C)cc4)CC3)cnc2C(N)=O)sn1` (stereo not drawn) [Example B-5, 5-({4-[4-(dimethylamino)benzamido]cyclohexyl}amino)-3-[(3-methyl-1,2-thiazol-5-yl)amino]pyrazine-2-carboxamide]: the IC50 in experiment [1] (Table 11, Formula B-I) was no more than 100 nM; in experiment [2] (Table 11, Formula B-I) it was less than 100 nM; in experiment [3] (Table 11, Formula B-I), 100 to 1000 nM.

For the compound `CN(C)c1ccc(C(=O)N[C@@H]2CCCN(c3cnc(C(N)=O)c(Nc4ccc(S(C)(=O)=O)cc4)n3)C2)cc1` [Example A-44, 5-[(3R)-3-[4-(dimethylamino)benzamido]piperidin-1-yl]-3-[(4-methanesulfonylphenyl)amino]pyrazine-2-carboxamide], the IC50 in experiment [1] (Table 10, Formula A-I) is no more than 100 nM; in experiment [2] (Table 10, Formula A-I) it was 1000 to 10000 nM; in experiment [3] (Table 10, Formula A-I), greater than 10000 nM.

For `Cc1cc(Nc2nc(N[C@H]3CCN(C(=O)N(C)C)C3)cnc2C(N)=O)sn1` [Example C-10, 5-{[(3S)-1-(dimethylcarbamoyl)pyrrolidin-3-yl]amino}-3-[(3-methyl-1,2-thiazol-5-yl)amino]pyrazine-2-carboxamide], the IC50 in experiment [1] (Table 12, Formula C-I) is no more than 100 nM; in experiment [2] (Table 12, Formula C-I) it was 100 to 1000 nM; in experiment [3] (Table 12, Formula C-I), 100 to 1000 nM.

As to `Cc1cc(Nc2nc(N3CCC[C@@H](NC(=O)c4ccc(C5CC5)cc4)C3)cnc2C(N)=O)sn1` [Example A-32, 5-[(3R)-3-(4-cyclopropylbenzamido)piperidin-1-yl]-3-[(3-methyl-1,2-thiazol-5-yl)amino]pyrazine-2-carboxamide], the concentration for half-maximal inhibition (IC50) in experiment [1] (Table 10, Formula A-I) was no more than 100 nM; in experiment [2] (Table 10, Formula A-I), 1000 to 10000 nM; in experiment [3] (Table 10, Formula A-I), greater than 10000 nM.

Turning to `Cc1cc(Nc2nc(N(C)CC3CCN(C(=O)N(C)C)CC3)cnc2C(N)=O)sn1` [Example C-14, 5-({[1-(dimethylcarbamoyl)piperidin-4-yl]methyl}(methyl)amino)-3-[(3-methyl-1,2-thiazol-5-yl)amino]pyrazine-2-carboxamide], the half-maximal inhibitory concentration (IC50) in experiment [1] (Table 12, Formula C-I) was 100 to 1000 nM; in experiment [2] (Table 12, Formula C-I), 1000 to 10000 nM; in experiment [3] (Table 12, Formula C-I), 1000 to 10000 nM.

In the case of `Cc1cc(Nc2nc(N3CCC[C@@H](NC(=O)c4ccc(C(C)C)cc4)C3)cnc2C(N)=O)sn1` [Example A-30, 3-[(3-methyl-1,2-thiazol-5-yl)amino]-5-[(3R)-3-[4-(propan-2-yl)benzamido]piperidin-1-yl]pyrazine-2-carboxamide], the concentration for half-maximal inhibition (IC50) in experiment [1] (Table 10, Formula A-I) was no more than 100 nM; in experiment [2] (Table 10, Formula A-I), 1000 to 10000 nM; in experiment [3] (Table 10, Formula A-I), greater than 10000 nM.

On to `Cc1cc(Nc2nc(N3CCC[C@@H](NC(=O)c4ccccc4)C3)cnc2C(N)=O)sn1` [Example A-19, 5-[(3R)-3-benzamidopiperidin-1-yl]-3-[(3-methyl-1,2-thiazol-5-yl)amino]pyrazine-2-carboxamide], for which the IC50 in experiment [1] (Table 10, Formula A-I) was no more than 100 nM; in experiment [2] (Table 10, Formula A-I) it was 100 to 1000 nM; in experiment [3] (Table 10, Formula A-I), 100 to 1000 nM.

With `Cc1cc(Nc2nc(N3CCC[C@@H](NC(=O)c4ccc(N(C)C)nc4)C3)cnc2C(N)=O)sn1` [Example A-34, 5-[(3R)-3-[6-(dimethylamino)pyridine-3-amido]piperidin-1-yl]-3-[(3-methyl-1,2-thiazol-5-yl)amino]pyrazine-2-carboxamide], the IC50 in experiment [1] (Table 10, Formula A-I) is no more than 100 nM; in experiment [2] (Table 10, Formula A-I) it was 1000 to 10000 nM; in experiment [3] (Table 10, Formula A-I) it was 1000 to 10000 nM.

As a reminder, the IC50 is the concentration at which inhibition is half-maximal.
